According to US11739074B2, “Ras inhibitors” (Revolution Medicines, Inc., priority 2019, dated 2023):

Columns and labels:
NRAS WT = biological target: T1, NRAS WT (Homo sapiens, UniProt P01111+P62937); experiment: Ras-Raf disruption/FRET/MOA assay, NRAS WT; format: biochemical; settings: NRAS WT; read-out: NRAS WT FRET data IC50
T1 construct: His6
Source text: (§1) Disruption of B-Raf Ras-Binding Domain (BRAF^RBD) Interaction with K-Ras by Compounds of the Invention (Also Called a FRET Assay or an MOA Assay)
(§2) Note—The following protocol describes a procedure for monitoring disruption of K-Ras G12C (GMP-PNP) binding to BRAF^RBD by a compound of the invention. This protocol may also be executed substituting other Ras proteins or nucleotides, such as K-Ras G12D and K-Ras G13D.
(§3) The purpose of this biochemical assay was to measure the ability of test compounds to facilitate ternary complex formation between a nucleotide-loaded K-Ras isoform and Cyclophilin A; the resulting ternary complex disrupts binding to a BRAF^RBD construct, inhibiting K-Ras signaling through a RAF effector.
(§4) In assay buffer containing 25 mM HEPES pH 7.3, 0.002% Tween20, 0.1% BSA, 100 mM NaCl and 5 mM MgCl2, tagless Cyclophilin A, His6-K-Ras-GMPPNP, and GST-BRAF^RBD were combined in a 384-well assay plate at final concentrations of 25 μM, 12.5 nM, and 50 nM, respectively. Compound was present in plate wells as a 10-point 3-fold dilution series starting at a final concentration of 30 μM. After incubation at 25° C. for 3 hours, a mixture of anti-His Eu-W1024 and anti-GST allophycocyanin was then added to assay sample wells at final concentrations of 10 nM and 50 nM, respectively, and the reaction incubated for an additional 1.5 hours. […] Compounds that facilitate disruption of a K-Ras:RAF complex were identified as those eliciting a decrease in the TR-FRET ratio relative to DMSO control wells.

NCI-H358 (K-Ras G12C) = experiment: CellTiter-Glo cell viability assay, H358; format: cell-based; settings: Homo sapiens, NCI-H358, 120 h, NCI-H358, K-Ras G12C, 5-day treatment; read-out: H358 Cell Viability IC50
In short: (§5)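 Test compounds were dispensed directly onto seeded cells, and on day 5 plates were brought to room temperature for about 30 minutes before CellTiter-Glo luminescence was read. Signals were expressed as percent of the mean DMSO control and fitted with a four-parameter logistic model.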

KRAS G12V = KRAS G12V (Homo sapiens, UniProt P01116+P62937, G12V); experiment: Ras-Raf disruption/FRET/MOA assay, KRAS G12V; format: biochemical; settings: disruption of BRAF RBD binding, with Cyclophilin A; read-out: KRAS G12V FRET IC50
Chain of KRAS G12V (P01116 1-169 isoform P01116-2 G12V limits assumed): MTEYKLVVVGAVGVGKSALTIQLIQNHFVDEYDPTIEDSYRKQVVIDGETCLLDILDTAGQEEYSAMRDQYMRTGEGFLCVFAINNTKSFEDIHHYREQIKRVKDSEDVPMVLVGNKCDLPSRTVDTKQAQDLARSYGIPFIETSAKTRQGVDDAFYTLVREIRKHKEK
Chain of KRAS G12V (P62937 whole entry): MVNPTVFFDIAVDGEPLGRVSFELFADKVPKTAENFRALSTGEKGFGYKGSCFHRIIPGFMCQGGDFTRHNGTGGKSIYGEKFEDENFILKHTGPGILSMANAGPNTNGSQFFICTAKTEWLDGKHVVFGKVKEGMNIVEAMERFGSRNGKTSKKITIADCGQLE
In short: (§6)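 Compounds promote a Cyclophilin A (25 μM) ternary complex with His6-KRAS-GMPPNP, which blocks binding of GST-BRAF^RBD (50 nM). Titration runs to a 30 μM top concentration, and loss of RAF binding is detected by TR-FRET.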

AsPC-1 (K-Ras G12D) [1] = experiment: CellTiter-Glo cell viability assay, AsPC-1; format: cell-based; settings: Homo sapiens, ASPC1, 120 h, AsPC-1, K-Ras G12D, 5-day treatment; read-out: AsPC-1 Cell Viability IC50
In short: as §5

NRAS Q61K = biological target: T2, NRAS Q61K (Homo sapiens, UniProt P01111+P62937, Q61K); experiment: Ras-Raf disruption/FRET/MOA assay, NRAS Q61K; format: biochemical; settings: NRAS Q61K; read-out: NRAS Q61K FRET data IC50
T2 construct: His6
T2 sequence (P01111 whole entry Q61K): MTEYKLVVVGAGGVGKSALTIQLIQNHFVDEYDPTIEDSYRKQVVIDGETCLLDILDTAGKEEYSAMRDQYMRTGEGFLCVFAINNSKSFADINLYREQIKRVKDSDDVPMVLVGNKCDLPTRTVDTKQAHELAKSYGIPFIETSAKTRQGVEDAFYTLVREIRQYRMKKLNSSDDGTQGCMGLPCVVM
T2 sequence (P62937 whole entry): as the sequence (P62937 whole entry) above
Source text: as §1, §2, §3, §4

KRAS G12S = KRAS G12S (Homo sapiens, UniProt P01116+P62937, G12S); experiment: Ras-Raf disruption/FRET/MOA assay, KRAS G12S; format: biochemical; settings: disruption of BRAF RBD binding, with Cyclophilin A; read-out: KRAS G12S FRET IC50
Chain of KRAS G12S (P01116 1-169 isoform P01116-2 G12S limits assumed): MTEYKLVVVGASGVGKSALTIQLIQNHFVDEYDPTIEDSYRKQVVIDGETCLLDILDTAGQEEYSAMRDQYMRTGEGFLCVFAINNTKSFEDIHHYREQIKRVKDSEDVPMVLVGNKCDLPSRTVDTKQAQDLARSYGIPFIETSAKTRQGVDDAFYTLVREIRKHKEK
Chain of KRAS G12S (P62937 whole entry): as the sequence (P62937 whole entry) above
In short: as §6

NRAS G12C = biological target: T3, NRAS G12C (Homo sapiens, UniProt P01111+P62937, G12C); experiment: Ras-Raf disruption/FRET/MOA assay, NRAS G12C; format: biochemical; settings: NRAS G12C; read-out: NRAS G12C FRET data IC50
T3 construct: His6
T3 sequence (P01111 whole entry G12C): as the sequence (P01111 whole entry Q61K) above, with G12C, K61Q counted along it
T3 sequence (P62937 whole entry): as the sequence (P62937 whole entry) above
In short: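 Disruption of Ras:RAF binding was read as a drop in TR-FRET ratio versus DMSO controls. The buffer was 25 mM HEPES pH 7.3, 0.002% Tween20, 0.1% BSA, 100 mM NaCl and 5 mM MgCl2. Compounds were tested as a 10-point 3-fold dilution series from 30 μM. Detection used 10 nM anti-His Eu-W1024 and 50 nM anti-GST allophycocyanin.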

KRAS G12D = KRAS G12D (Homo sapiens, UniProt P01116+P62937, G12D); experiment: Ras-Raf disruption/FRET/MOA assay, KRAS G12D; format: biochemical; settings: disruption of BRAF RBD binding, with Cyclophilin A; read-out: KRAS G12D FRET IC50
Chain of KRAS G12D (P01116 1-169 isoform P01116-2 G12D limits assumed): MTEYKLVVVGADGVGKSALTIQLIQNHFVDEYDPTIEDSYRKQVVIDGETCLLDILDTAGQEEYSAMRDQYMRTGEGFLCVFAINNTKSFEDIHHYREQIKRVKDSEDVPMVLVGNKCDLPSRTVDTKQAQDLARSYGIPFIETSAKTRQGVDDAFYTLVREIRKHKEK
Chain of KRAS G12D (P62937 whole entry): as the sequence (P62937 whole entry) above
In short: as §6

KRAS WT = KRAS WT (Homo sapiens, UniProt P01116+P62937); experiment: Ras-Raf disruption/FRET/MOA assay, KRAS WT; format: biochemical; settings: disruption of BRAF RBD binding, with Cyclophilin A; read-out: KRAS WT FRET IC50
Chain of KRAS WT (P01116 1-169 isoform P01116-2 limits assumed): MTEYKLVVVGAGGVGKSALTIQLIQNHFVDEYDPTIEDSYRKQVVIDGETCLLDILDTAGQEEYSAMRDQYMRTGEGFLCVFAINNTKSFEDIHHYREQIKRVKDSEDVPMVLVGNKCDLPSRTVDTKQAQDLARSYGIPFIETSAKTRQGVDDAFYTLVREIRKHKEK
Chain of KRAS WT (P62937 whole entry): as the sequence (P62937 whole entry) above
In short: as §6

KRAS Q61H = KRAS Q61H (Homo sapiens, UniProt P01116+P62937, Q61H); experiment: Ras-Raf disruption/FRET/MOA assay, KRAS Q61H; format: biochemical; settings: KRAS Q61H; read-out: KRAS Q61H FRET data IC50
Chain of KRAS Q61H (P01116 1-169 isoform P01116-2 Q61H limits assumed): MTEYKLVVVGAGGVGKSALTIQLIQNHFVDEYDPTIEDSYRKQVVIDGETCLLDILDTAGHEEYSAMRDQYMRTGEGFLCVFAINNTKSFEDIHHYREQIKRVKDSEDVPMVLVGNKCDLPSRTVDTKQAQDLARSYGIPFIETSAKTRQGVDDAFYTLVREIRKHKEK
Chain of KRAS Q61H (P62937 whole entry): as the sequence (P62937 whole entry) above
Source text: as §1, §2, §3, §4

KRAS G12C = KRAS G12C (Homo sapiens, UniProt P01116+P62937, G12C); experiment: Ras-Raf disruption/FRET/MOA assay, KRAS G12C; format: biochemical; settings: disruption of BRAF RBD binding, with Cyclophilin A; read-out: KRAS G12C FRET IC50
Chain of KRAS G12C (P01116 1-169 isoform P01116-2 G12C limits assumed): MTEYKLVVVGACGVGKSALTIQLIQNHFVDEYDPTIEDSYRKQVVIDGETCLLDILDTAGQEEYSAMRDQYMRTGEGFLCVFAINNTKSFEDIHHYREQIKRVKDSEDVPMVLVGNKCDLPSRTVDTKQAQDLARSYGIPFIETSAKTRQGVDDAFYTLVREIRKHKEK
Chain of KRAS G12C (P62937 whole entry): as the sequence (P62937 whole entry) above
In short: as §6

NRAS Q61R = biological target: T4, NRAS Q61R (Homo sapiens, UniProt P01111+P62937, Q61R); experiment: Ras-Raf disruption/FRET/MOA assay, NRAS Q61R; format: biochemical; settings: NRAS Q61R; read-out: NRAS Q61R FRET data IC50
T4 construct: His6
T4 sequence (P01111 whole entry Q61R): as the sequence (P01111 whole entry Q61K) above, with K61R counted along it
T4 sequence (P62937 whole entry): as the sequence (P62937 whole entry) above
Source text: as §1, §2, §3, §4

KRAS G13D = KRAS G13D (Homo sapiens, UniProt P01116+P62937, G13D); experiment: Ras-Raf disruption/FRET/MOA assay, KRAS G13D; format: biochemical; settings: disruption of BRAF RBD binding, with Cyclophilin A; read-out: KRAS G13D FRET IC50
Chain of KRAS G13D (P01116 1-169 isoform P01116-2 G13D limits assumed): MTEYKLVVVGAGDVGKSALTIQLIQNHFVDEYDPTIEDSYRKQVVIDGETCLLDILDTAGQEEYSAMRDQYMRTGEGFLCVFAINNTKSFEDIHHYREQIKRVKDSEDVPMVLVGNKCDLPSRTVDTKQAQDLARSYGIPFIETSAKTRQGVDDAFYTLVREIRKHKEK
Chain of KRAS G13D (P62937 whole entry): as the sequence (P62937 whole entry) above
In short: as §6

KRAS G13C = KRAS G13C (Homo sapiens, UniProt P01116+P62937, G13C); experiment: Ras-Raf disruption/FRET/MOA assay, KRAS G13C; format: biochemical; settings: disruption of BRAF RBD binding, with Cyclophilin A; read-out: KRAS G13C FRET IC50
Chain of KRAS G13C (P01116 1-169 isoform P01116-2 G13C limits assumed): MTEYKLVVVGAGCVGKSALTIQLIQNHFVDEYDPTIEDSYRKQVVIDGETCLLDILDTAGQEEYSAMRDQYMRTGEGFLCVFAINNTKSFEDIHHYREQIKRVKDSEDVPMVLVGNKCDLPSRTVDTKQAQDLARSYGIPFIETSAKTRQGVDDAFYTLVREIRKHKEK
Chain of KRAS G13C (P62937 whole entry): as the sequence (P62937 whole entry) above
In short: as §6

AsPC-1 (K-Ras G12D) [2] = experiment: Potency assay: pERK in AsPC-1 cells; format: cell-based; settings: Homo sapiens, ASPC1; AsPC-1 cells, K-Ras G12D; read-out: pERK EC50 (AsPC-1 KRAS G12D)

T1 sequence (P01111 whole entry): as the sequence (P01111 whole entry Q61K) above, with K61Q counted along it
T1 sequence (P62937 whole entry): as the sequence (P62937 whole entry) above

Row | SMILES | IC50 (NRAS WT) [µM] | IC50 (NCI-H358 (K-Ras G12C)) [µM] | IC50 (KRAS G12V) [µM] | IC50 (AsPC-1 (K-Ras G12D) [1]) [µM] | IC50 (NRAS Q61K) [µM] | IC50 (KRAS G12S) [µM] | IC50 (NRAS G12C) [µM] | IC50 (KRAS G12D) [µM] | IC50 (KRAS WT) [µM] | IC50 (KRAS Q61H) [µM] | IC50 (KRAS G12C) [µM] | IC50 (NRAS Q61R) [µM] | IC50 (KRAS G13D) [µM] | IC50 (KRAS G13C) [µM] | EC50 (AsPC-1 (K-Ras G12D) [2]) [µM]
1 | CCn1c(-c2cccnc2[C@H](C)OC)c2c3cc(ccc31)-c1cc(O)cc(c1)C[C@H](NC(=O)[C@H](C(C)C)N1CO[C@]3(CCN(C(=O)[C@H]4CN4)C3)C1=O)C(=O)N1CCC[C@H](N1)C(=O)OCC(C)(C)C2 [Compound 231] | 0.01 to 0.1 | < 0.01 | 0.01 to 0.1 | 0.1 to 1 | 0.01 to 0.1 | 0.01 to 0.1 | < 0.01 | 0.01 to 0.1 | 0.01 to 0.1 | < 0.01 | < 0.01 | 0.1 to 1 | 0.01 to 0.1 | < 0.01 | < 5
2 | CCn1c(-c2cccnc2[C@H](C)OC)c2c3cc(ccc31)-c1csc(n1)C[C@H](NC(=O)[C@H](C(C)C)N(C)C(=O)N1C3CCC1CN(C(=O)[C@H]1CN1)C3)C(=O)N1CCC[C@H](N1)C(=O)OCC(C)(C)C2 [Compound 303] | 0.1 to 1 | 0.01 to 0.1 | 0.1 to 1 | 0.1 to 1 | 0.1 to 1 | 0.1 to 1 | 0.1 to 1 | 0.1 to 1 | 0.1 to 1 | 0.01 to 0.1 | 0.1 to 1 | 0.1 to 1 | 0.1 to 1 | 0.1 to 1 | < 5
3 | CCn1c(-c2cccnc2[C@H](C)OC)c2c3cc(ccc31)-c1csc(n1)C[C@H](NC(=O)[C@H](C(C)C)N(C)C(=O)N1C3CCC1CN(C(=O)[C@@H]1CN1)C3)C(=O)N1CCC[C@H](N1)C(=O)OCC(C)(C)C2 [Compound 304] | 0.1 to 1 | 0.1 to 1 | 0.1 to 1 | 1 to 10 | 0.1 to 1 | 0.1 to 1 | 0.1 to 1 | 0.1 to 1 | 0.1 to 1 | 0.01 to 0.1 | 0.1 to 1 | 0.1 to 1 | 1 to 10 | 1 to 10 | < 5
4 | CCn1c(-c2cccnc2[C@H](C)OC)c2c3cc(ccc31)-c1cc(cc(C(F)F)c1)C[C@H](NC(=O)[C@H](C1CCCC1)N1CC[C@]3(CCN(C(=O)[C@@H]4N[C@@H]4C4CC4)C3)C1=O)C(=O)N1CCC[C@H](N1)C(=O)OCC(C)(C)C2 [Compound 318] | 1 to 10 | 0.1 to 1 | 1 to 10 | 0.1 to 1 | 1 to 10 | 1 to 10 | 1 to 10 | 1 to 10 | 0.1 to 1 | 0.1 to 1 | 0.1 to 1 | 1 to 10 | 1 to 10 | 0.1 to 1 | 
